Data set [1] has as its system human males. To be noted: cited from earlier work; for priapism (background): treatment of impotence.
Data set [2] relates to male suffering from impotence, which is substantially only neurogenic or psychogenic. The conditions noted are these: cited from earlier work; for erection after intracavernosal injection where severe atherosclerosis is not involved (background): injection into a corpus cavernosum.
Data set [3] has as its system males suffering from impotence of which severe atherosclerosis is a cause. To be noted: background statement; cited from earlier work.
Data set [4] has the same test system. As to the kind of experiment: Intracavernosal injection coupled with sexual stimulation in males with impotence of which severe atherosclerosis is a cause. Type of data set: in vivo, human. As for the experimental part: To minimize side-effects when VIP is employed in such a composition, it is preferred that less than about 60 μg of VIP be administered.
Thus, between about 0. […] If necessary, the time between injection and sexual stimulation may be longer, up to several hours.

Data set [5] concerns human males. As to the kind of experiment: Side effects of intracavernosal injection to induce an erection. Type of data set: in vivo.
Data set [6] has as its system normal male (males not suffering from erectile insufficiency). The conditions noted are these: cited from earlier work.
Data set [7] deals with male suffering from impotence, which is substantially only neurogenic or psychogenic. Kind of data set: Intracavernosal injection coupled with sexual stimulation in males with impotence that is substantially only neurogenic or psychogenic. Type of data set: in vivo, human. To be noted: for time to erection sufficient for vaginal penetration: 1 ml of 30 μg/ml in phosphate buffered saline, after tourniquet release (5-10 minutes after injection) and sexual stimulation; for dose with which virtually all males achieve an erection sufficient for vaginal penetration: intracavernosal injection in physiologically acceptable diluent; for dose with which virtually all males achieve an erection sufficient for vaginal penetration / dose as low as which many males achieve an erection sufficient for vaginal penetration: coupled with sexual stimulation; for dose as low as which many males achieve an erection sufficient for vaginal penetration: intracavernosal injection.
Experimental: A preferred composition to effect an erection in male suffering from impotence, which is substantially only neurogenic or psychogenic, in accord with the methods herein, is a solution of PHM or VIP at 30 μg/ml in phosphate buffered saline at pH between about 2 and about 4.5, preferably between about 2 and about 3.5 and most preferably about 3, with the PHM or VIP the only substance in the solution that is pharmacologically active in inducing an erection. Preferably 1 ml of the preferred composition is administered as a bolus by injection into a corpus cavernosum while the penis is constricted at its base with a tourniquet. About 5-10 minutes after the injection, the tourniquet is released and, if not already started before the tourniquet is released, sexual stimulation is begun. […] The composition, however, the time between administration and sexual stimulation may be longer, if necessary.

Entries after “also recorded” stand apart in the source; their conditions may differ. Where no end group is shown, it is not given here.

As for `COc1ccc(Cc2nccc3cc(OC)c(OC)cc23)cc1OC` [papaverine], in the data set on human males [1] (intracavernosal use), the “pain on injection (background)” value was “painful, burning sensation in the first two or so minutes after the injection”. Further, the “fibrosis on repeated use (background)” value in the data set with human males [1] (repeated use) is recorded as “undesirable, extensive intracavernous fibrosis”. The “priapism (background)” value in the data set with human males [1] was “often results in priapism”. The “erection after intracavernosal injection where severe atherosclerosis is not involved (background)” value in data set [2] is reported as “cause an erection sufficient for vaginal penetration”. The “induction of erection in impotence due to severe atherosclerosis (background)” value (“induction of erection in impotence due” below) in data set [3] was “ineffective; also recorded: not susceptible to treatment”.
As for `CC(COc1ccccc1)N(CCCl)Cc1ccccc1` (centres unmarked) [phenoxybenzamine], the “carcinogenicity (background)” value with human males [1] (in vivo) is on record as “is a carcinogen”. The “priapism (background)” value in the data set with human males [1] is given as “often results in priapism”. Further, the “erection after intracavernosal injection where severe atherosclerosis is not involved (background)” value in data set [2] is “cause an erection sufficient for vaginal penetration”. Moreover, in data set [3], the “induction of erection in impotence due” value is reported as “not susceptible to treatment”.
Consider `Cc1ccc(N(CC2=NCCN2)c2cccc(O)c2)cc1` [phentolamine], for which the “erection after intracavernosal injection where severe atherosclerosis is not involved (background)” value in data set [2] was “causes an erection sufficient for vaginal penetration”. Also, the “duration of resulting erection (background)” value in data set [2] (intracavernosal injection, severe atherosclerosis not a cause) is “significantly shorter duration than that induced by intracavernosal injection of papaverine or phenoxybenzamine”. The “induction of erection in impotence due” value in data set [3] is “not susceptible to treatment”.
For the compound “human vasoactive intestinal peptide [VIP]”, in data set [4], the “induction of erection in impotence caused by severe atherosclerosis” value is listed as “not effective in inducing erections”. The “side-effects observed at higher doses” value in the data set with human males [5] (in vivo) was “hypotension, increased pulse rate, flushing of the face and trunk”. Besides, in data set [6] (as little as 1 μm (at 1 μm/ml of diluent) injected into a corpus cavernosum), the “erectile response coupled with visual and/or vibratory sexual stimulation” value is “facilitates full erection”. Also, the “erectile response without sexual stimulation” value in data set [6] (injection of up to 20 μm of VIP (at 20 μm/ml of diluent) into a corpus cavernosum, no sexual stimulation) is given as “only slight swelling (slight tumescence) of the penis but not an erection”. Moreover, in data set [7], the “time to erection sufficient for vaginal penetration” value was at most 5 min, the “dose with which virtually all males achieve an erection sufficient for vaginal penetration” value came out at 30 µg and the “dose as low as which many males achieve an erection sufficient for vaginal penetration” value came to 10 µg. Further, the “induction of erection in impotence due” value in data set [3] is on record as “does not induce erections”.
Regarding “peptide N-terminal histidine C-terminal methionineamide (HADGVFTSDFSKLLGQLSAKKYLESLM-NH2; UniProt P01282 81-107, looked up) [PHM]”, the “induction of erection in impotence caused by severe atherosclerosis” value in data set [4] is “not effective in inducing erections”. For the same compound, the priapism entry in the data set with human males [5] (induction of an erection with VIP or PHM by intracavernosal injection) is reported as “does not entail priapism; also recorded: Priapism does not occur”. In data set [7], the “time to erection sufficient for vaginal penetration” value was at most 5 min, the “dose with which virtually all males achieve an erection sufficient for vaginal penetration” value was found to be 30 µg and the “dose as low as which many males achieve an erection sufficient for vaginal penetration” value was 10 µg. Moreover, the “duration of pharmacological effect compared with VIP” value in data set [7] (at the same dosage) was “somewhat longer lasting pharmacological effect than VIP”.

(Values after patent US5447912A, “Erection-inducing methods and compositions” (priority 1993, dated 1995).)
